Reference: patent EP0831093A1, “1-Carba-(dethia)-Cephalosporin Derivatives” (F. HOFFMANN-LA ROCHE AG, priority 1996, dated 1998)
Converted amounts (≈) assume the structure as drawn. Structures can show the parent of a compound that is named as a salt. Where two headings read alike, the source gives them in different places.

Legend:
Experiment in all cases: MIC, agar dilution method in Mueller Hinton agar
Type in all cases: cell-based
E.cloacae 908R = details: Enterobacter cloacae
Experimental: (§1) In vitro activity was determined by minimum inhibitory concentration in a microorganism spectum by the agar dilution method in Mueller Hinton agar, inoculum = 10^4 CFU/spot.

S.pneumoniae. 907 = details: Streptococcus pneumoniae
Experimental: as §1

E.cloacae 908SSi = details: Enterobacter cloacae
Experimental: as §1

S.aureus 743 (MRSA) = details: Staphylococcus aureus
Experimental: as §1

E.coli TEM1 = details: Escherichia coli
Experimental: as §1

S.marcescens 69438 = details: Serratia marcescens
Experimental: as §1

S.aureus 6538 = details: Staphylococcus aureus
Experimental: as §1

P.vulgaris 1028 = details: Proteus vulgaris
Experimental: as §1

K.pneumoniae 418 = details: Klebsiella pneumoniae
Experimental: as §1

P.aeruginosa ATCC27853 = details: Pseudomonas aeruginosa
Experimental: as §1

E.coli 25922 = details: Escherichia coli
Experimental: as §1

S.pyogenes b 15 = details: Streptococcus pyogenes
Experimental: as §1

C.freundii 902 = details: Citrobacter freundii
Experimental: as §1

E.faecalis 6 = details: Enterococcus faecalis
Experimental: as §1

C.freundii 43 = details: Citrobacter freundii
Experimental: as §1

P.mirabilis 2117 = details: Proteus mirabilis
Experimental: as §1

[1] = E.cloacae 908R, inoculum = 10^4 CFU/spot, read-out: MIC
[2] = S.pneumoniae. 907, inoculum = 10^4 CFU/spot, read-out: MIC
[3] = E.cloacae 908SSi, inoculum = 10^4 CFU/spot, read-out: MIC
[4] = S.aureus 743 (MRSA), inoculum = 10^4 CFU/spot, read-out: MIC
[5] = S.marcescens 69438, inoculum = 10^4 CFU/spot, read-out: MIC
[6] = S.aureus 6538, inoculum = 10^4 CFU/spot, read-out: MIC
[7] = P.vulgaris 1028, inoculum = 10^4 CFU/spot, read-out: MIC
[8] = K.pneumoniae 418, inoculum = 10^4 CFU/spot, read-out: MIC
[9] = P.aeruginosa ATCC27853, inoculum = 10^4 CFU/spot, read-out: MIC
[10] = E.coli 25922, inoculum = 10^4 CFU/spot, read-out: MIC
[11] = S.pyogenes b 15, inoculum = 10^4 CFU/spot, read-out: MIC
[12] = C.freundii 902, inoculum = 10^4 CFU/spot, read-out: MIC
[13] = E.faecalis 6, inoculum = 10^4 CFU/spot, read-out: MIC
[14] = C.freundii 43, inoculum = 10^4 CFU/spot, read-out: MIC
[15] = P.mirabilis 2117, inoculum = 10^4 CFU/spot, read-out: MIC

SMILES | MIC (E.cloacae 908R; [1]) [µg/mL] | MIC (S.pneumoniae. 907; [2]) [µg/mL] | MIC (E.cloacae 908SSi; [3]) [µg/mL] | MIC (S.aureus 743 (MRSA); [4]) [µg/mL] | MIC (E.coli TEM1) [µg/mL] | MIC (S.marcescens 69438; [5]) [µg/mL] | MIC (S.aureus 6538; [6]) [µg/mL] | MIC (P.vulgaris 1028; [7]) [µg/mL] | MIC (K.pneumoniae 418; [8]) [µg/mL] | MIC (P.aeruginosa ATCC27853; [9]) [µg/mL] | MIC (E.coli 25922; [10]) [µg/mL] | MIC (S.pyogenes b 15; [11]) [µg/mL] | MIC (C.freundii 902; [12]) [µg/mL] | MIC (E.faecalis 6; [13]) [µg/mL] | MIC (C.freundii 43; [14]) [µg/mL] | MIC (P.mirabilis 2117; [15]) [µg/mL] | other results
Nc1nc(/C(=N/O)C(=O)N[C@@H]2C(=O)N3C(C(=O)O)=C(/C=C4\CCN(c5ccc(O)cc5)C4=O)CC[C@H]23)cs1 [B, (6R,7S)-7-[(Z)-2-(Amino-thiazol-4-yl)-2-hydroxyimino-acetylamino]-3-[(E)-1-(4-hydroxy-phenyl)-2-oxo-pyrrolidin-3-ylidenemethyl]-8-oxo-1-aza-bicyclo[4.2.0]oct-2-ene-2-carboxylic acid sodium salt (1:1)] | > 32 | ≤ 0.06 | 0.5 | 32 | 0.12 | 4 | 1 | > 32 | 0.12 | 32 | 0.25 | ≤ 0.06 | 0.5 | 4 | 32 | – | –
C[n+]1cccc(N2CC/C(=C\C3=C(C(=O)[O-])N4C(=O)[C@@H](NC(=O)/C(=N\OCC(=O)O)c5csc(N)n5)[C@H]4CC3)C2=O)c1 [F, (6R,7S)-7-[(Z)-2-(2-Amino-thiazol-4-yl)-2-carboxymethoxyimino-acetylamino]-3-[(E)-1-(1-methyl-pyridin-1-ium-3-yl)-2-oxo-pyrrolidin-3-ylidenemethyl]-8-oxo-1-aza-bicyclo[4.2.0]oct-2-ene-2-carboxylate Na salt (1:1)] | 4 | ≤ 0.06 | ≤ 0.06 | > 32 | ≤ 0.06 | ≤ 0.06 | 32 | 0.12 | ≤ 0.06 | 1 | ≤ 0.06 | 0.12 | ≤ 0.06 | > 32 | 2 | ≤ 0.06 | –
C[n+]1cccc(N2CC/C(=C\C3=C(C(=O)[O-])N4C(=O)[C@@H](NC(=O)/C(=N\O)c5csc(N)n5)[C@H]4CC3)C2=O)c1 [C, (6R,7S)-7-[(Z)-2-(2-Amino-thiazol-4-yl)-2-hydroxyimino-acetylamino]-3-[(E)-1-(1-methyl-pyridin-1-ium-3-yl)-2-oxo-pyrrolidin-3-ylidenemethyl]-8-oxo-1-aza-bicyclo[4.2.0]oct-2-ene-2-carboxylate] | 2 (≈ 3.72 µM) | ≤ 0.06 | ≤ 0.06 | 8 (≈ 14.9 µM) | ≤ 0.06 | 0.12 (≈ 0.223 µM) | 1 (≈ 1.86 µM) | 16 (≈ 29.8 µM) | ≤ 0.06 | 4 (≈ 7.44 µM) | ≤ 0.06 | ≤ 0.06 | ≤ 0.06 | 0.5 (≈ 0.93 µM) | 0.5 (≈ 0.93 µM) | ≤ 0.06 | –
C[n+]1cccc(N2CC/C(=C\C3=C(C(=O)[O-])N4C(=O)[C@@H](NC(=O)/C(=N\O)c5nsc(N)n5)[C@H]4CC3)C2=O)c1 [D, (6R,7S)-7-[(Z)-2-(5-Amino-[1,2,4]thiadiazol-3-yl)-hydroxyimino-acetylamino]-3-[(E)-1-(1-methyl-pyridin-1-ium-3-yl)-2-oxo-pyrrolidin-3-ylidenemethyl]-8-oxo-1-aza-bicyclo[4.2.0]oct-2-ene-2-carboxylate] | 1 (≈ 1.86 µM) | ≤ 0.06 | 0.12 (≈ 0.223 µM) | 8 (≈ 14.9 µM) | 0.25 (≈ 0.464 µM) | 0.12 (≈ 0.223 µM) | 0.5 (≈ 0.928 µM) | > 32 | ≤ 0.06 | 8 (≈ 14.9 µM) | 0.06 (≈ 0.111 µM) | ≤ 0.06 | ≤ 0.06 | 0.25 (≈ 0.464 µM) | 0.5 (≈ 0.928 µM) | 0.12 (≈ 0.223 µM) | –
C[n+]1ccc(N2CC/C(=C\C3=C(C(=O)[O-])N4C(=O)[C@@H](NC(=O)/C(=N\OC5CCCC5)c5csc(N)n5)[C@H]4CC3)C2=O)cc1 [G, (6R,7S)-7-[(Z)-2-(2-Amino-thiazol-4-yl)-2-cyclopentyloxyimino-acetylamino]-3-[(E)-1-(1-methyl-pyridin-1-ium-4-yl)-2-oxo-pyrrolidin-3-ylidenemethyl]-8-oxo-1-aza-bicyclo[4.2.0]oct-2-ene-2-carboxylate] | 2 (≈ 3.3 µM) | ≤ 0.06 | ≤ 0.06 | 32 (≈ 52.8 µM) | 0.5 (≈ 0.826 µM) | 0.5 (≈ 0.826 µM) | 2 (≈ 3.3 µM) | 16 (≈ 26.4 µM) | 0.25 (≈ 0.413 µM) | 4 (≈ 6.6 µM) | ≤ 0.06 | ≤ 0.06 | ≤ 0.06 | 1 (≈ 1.65 µM) | 1 (≈ 1.65 µM) | 1 (≈ 1.65 µM) | –
Nc1nc(/C(=N/O)C(=O)N[C@@H]2C(=O)N3C(C(=O)[O-])=C(/C=C4\CCN(CC(F)(F)F)C4=O)CC[C@H]23)cs1.[Na+] [A, (6R,7S)-7-[(Z)-2-(2-Amino-thiazol-4-yl)-2-hydroxyimino-acetylamino]-8-oxo-3-[(E)-2-oxo-1-(2,2,2-trifluoro-ethyl)-pyrrolidin-3-ylidenemethyl]-1-aza-bicyclo[4.2.0]oct-2-ene-2-carboxylic acid sodium salt (1:1)] | – | – | – | – | 0.12 | – | – | – | – | – | – | – | – | – | – | – | MIC (E.cloacae 908R; 908R): > 32 µg/mL; MIC (S.pneumoniae. 907): ≤ 0.06 µg/mL; MIC (E.cloacae 908SSi; 908SSI): 2 µg/mL; MIC (S.aureus 743 (MRSA); MRSA): 32 µg/mL; MIC (S.marcescens 69438; 69438): 2 µg/mL; MIC (S.aureus 6538; 6538): 1 µg/mL; MIC (P.vulgaris 1028; 1028): > 32 µg/mL; MIC (K.pneumoniae 418; 418): 0.12 µg/mL; MIC (P.aeruginosa ATCC27853; ATCC27853): 32 µg/mL; MIC (E.coli 25922; 25922): ≤ 0.06 µg/mL; MIC (S.pyogenes b 15; 15): ≤ 0.06 µg/mL; MIC (P.mirabilis 2117; 2117): ≤ 0.06 µg/mL; MIC (C.freundii 902; 902): 0.25 µg/mL; MIC (E.faecalis 6; 6): 8 µg/mL; MIC (C.freundii 43; 43): 8 µg/mL
C[n+]1cccc(N2CC/C(=C\C3=C(C(=O)[O-])N4C(=O)[C@@H](NC(=O)/C(=N\OC5CCCC5)c5nsc(N)n5)[C@H]4CC3)C2=O)c1 [E, (6R,7S)-7-[(Z)-2-(5-Amino-[1,2,4]thiadiazol-3-yl)-cyclopentyloximino-acetylamino]-3-[(E)-1-(1-methyl-pyridin-1-ium-3-yl)-2-oxo-pyrroliden-3-ylidenemethyl]-8-oxo-1-aza-bicyclo[4.2.0]oct-2-ene-2-carboxylate] | 0.5 (≈ 0.824 µM) | ≤ 0.06 | ≤ 0.06 | 4 (≈ 6.59 µM) | 1 (≈ 1.65 µM) | 1 (≈ 1.65 µM) | 0.5 (≈ 0.824 µM) | 32 (≈ 52.7 µM) | 0.25 (≈ 0.412 µM) | 8 (≈ 13.2 µM) | ≤ 0.06 | ≤ 0.06 | ≤ 0.06 | 1 (≈ 1.65 µM) | 0.5 (≈ 0.824 µM) | 2 (≈ 3.3 µM) | –
